Measurements taken from patent US9072293B2, “Cyclopropenes and method for applying cyclopropenes to agricultural products or crops” (Erum Biotechnologies Inc., priority 2010, dated 2015).
Values joined by “and” are separate entries in the source; they are usually repeats but may differ in a detail not shown here. Identical values can stand only once.

Assays:
[1] = Relative chemical stability of cyclopropenes measured by 1H-NMR; assay type: physicochemical; conditions: 1H-NMR, CDCl3, stored at −20° C. or room temperature; relative to chain length 1
Text: A variety of analysis methods can be used to analyze the derivatives of Formula 6, since the absorbance of cyclopropenes containing an aryl group can be easily measured in the UV range. It can be confirmed that the chemical stability of the derivatives increases, when the length of chains to link an aryl ring to a cyclopropene ring is 2 or more. […] It is supposed that the stability of cyclopropenes increase due to the fact that π electrons of aryl groups affect π electrons of cyclopropenes.
The following Table 1 summarizes the relative chemical stability of cyclopropenes having a chain length of 2, 3, 4 or 5, based on the chemical stability of cyclopropenes having a chain length of 1. In the case of cyclopropene having a chain length of 1, the structure thereof can be confirmed via ^1H-NMR within one hour following synthesis (degraded to a level of 50% or more within one hour at 30° C.). In the case of cyclopropene having a chain length of zero, synthesis thereof was attempted in accordance with the present invention, but was impossible by a conventional method. Meanwhile, in the case of cyclopropenes having a chain length of 2 or more, the structure thereof can be precisely confirmed by ^1H-NMR as well as ^13C-NMR. The stability of these cyclopropenes was measured by ^1H-NMR while NMR cells (CDCl3) were stored at −20° C. or room temperature. In particular, cyclopropenes having chains of 3 or more were so stable that their half-life reached 5 days or longer at −20° C. or lower. In ^1H-NMR analysis, the stability was evaluated by comparing integral values at 4 to 6.5 ppm (1H) and 0.8 to 0.9 ppm (2H), characteristic peaks of 1-alkylcyclopropenes, using a small amount of 1,1,3,3-tetramethylurea (2.80 ppm) as an internal standard. Furthermore, the stability was also qualitatively evaluated by comparing integral value of the peak newly generated adjacent to the peak of the olefin proton of cyclopropene ring, as a 1-alkylcyclopropene compound is decomposed.

tomato = assay: Experimental Example 3: Efficacy test on tomato for other drugs (emulsion and oil-based formulation); assay type: in vivo; conditions: individual tomatoes n=4
Procedure: At this time, the tops of tomatoes most early turned red, while the bottoms thereof most lately turned red. For this reason, in order to accurately evaluate the difference in reddening, the coloring evaluated was based on the area of red color, rather than the color of tomatoes. […] Accordingly, the grade level is proportional to the rate at which the tomatoes ripened.
1.0 mM emulsions and oil-based formulations of four agents, i.e., 1-(2-(4-methoxyphenyl)ethyl)cyclopropene, 1-(3-(4-methoxyphenyl)propyl)cyclopropene, 1-(3-phenoxypropyl)cyclopropene and 1-(4-phenoxybutyl)cyclopropene were prepared in accordance with Examples 1 and 2.
The tomatoes were screened in the same manner as in Experimental Example 1 and divided into 9 groups (n=4), i.e., a non-treated group and 4 emulsion-type agent groups and 4 oil-based formulation-type agent groups. Tomatoes were treated with the previously prepared agent using a household sprayer such that the surface thereof was saturated. The tomatoes were stood at room temperature (25-30° C.) for 3 days and a reddening level thereof was evaluated based on grades of 0 to 5.

- Stability (relative chemical stability, based on cyclopropenes having a chain length of 1) [1]: >>10
Structure (SMILES): C1=C(CCCCOc2ccccc2)C1 [(4-Phenoxybutyl), 1-(4-phenoxybutyl)cyclopropene]
- reddening level (grade 0 to 5) (tomato; 1.0 mM Emulsion, Day 0, room temperature (25-30° C.)): 0 (an area in which the surface of tomato was colored in pink was 10% or less) (2×) and 1 (an area in which the surface of tomato was completely colored in red was 10 to 40%) and 2 (an area in which the surface of tomato was completely colored in red was 40 to 70%)
- reddening level (grade 0 to 5) (tomato; 1.0 mM Emulsion, Day 1, room temperature (25-30° C.)): 0 (an area in which the surface of tomato was colored in pink was 10% or less) (2×) and 2 (an area in which the surface of tomato was completely colored in red was 40 to 70%) (2×)
- reddening level (grade 0 to 5) (tomato; 1.0 mM Emulsion, Day 2, room temperature (25-30° C.)): 1 (an area in which the surface of tomato was completely colored in red was 10 to 40%) (2×) and 3 (an area in which the surface of tomato was completely colored in red was 70% or more and the bottom area remained green) (2×)
- reddening level (grade 0 to 5) (tomato; 1.0 mM Emulsion, Day 3, room temperature (25-30° C.)): 2 (an area in which the surface of tomato was completely colored in red was 40 to 70%) (2×) and 4 (2×)
- reddening level (grade 0 to 5) (tomato; 1.0 mM Oil-based formulation, Day 0, room temperature (25-30° C.)): 0 (an area in which the surface of tomato was colored in pink was 10% or less) (2×) and 1 (an area in which the surface of tomato was completely colored in red was 10 to 40%) and 2 (an area in which the surface of tomato was completely colored in red was 40 to 70%)
- reddening level (grade 0 to 5) (tomato; 1.0 mM Oil-based formulation, Day 1, room temperature (25-30° C.)): 0 (an area in which the surface of tomato was colored in pink was 10% or less) (2×) and 1 (an area in which the surface of tomato was completely colored in red was 10 to 40%) and 2 (an area in which the surface of tomato was completely colored in red was 40 to 70%)
- reddening level (grade 0 to 5) (tomato; 1.0 mM Oil-based formulation, Day 2, room temperature (25-30° C.)): 0 (an area in which the surface of tomato was colored in pink was 10% or less) and 1 (an area in which the surface of tomato was completely colored in red was 10 to 40%) and 2 (an area in which the surface of tomato was completely colored in red was 40 to 70%) (2×)
- reddening level (grade 0 to 5) (tomato; 1.0 mM Oil-based formulation, Day 3, room temperature (25-30° C.)): 1 (an area in which the surface of tomato was completely colored in red was 10 to 40%) (2×) and 3 (an area in which the surface of tomato was completely colored in red was 70% or more and the bottom area remained green) (2×)
